Data published in patent publication US4513001A, “β-Adrenergic 1-[1-benzimidazolyl]-N-[2-(4-hydroxy-3-methoxy-phenyl)-2-hydroxy-ethyl]- 3-amino butane and salts and hydrates thereof” (priority 1982, dated 1985).
“Also recorded” adds a separate entry of the source. Like-named read-outs stand apart in the source and are kept apart here.

Columns and labels:
[1] = tested on: isolated trachea preparation of the guinea pig; assay: Relaxant activity on isolated tracheal muscle in vitro
Procedure: This activity was studied on an isolated trachea preparation of the guinea pig (chain of tracheal rings, according to CASTILLO and BEER. Journ. Pharmacol. Exp. Ther. 1947 90 104-109), kept alive in a KREBS solution. The effect of cumulative doses on the pressure of the preparation was recorded.
The activity of the substance was expressed by the value of the molar CD50 (decontracting concentration 50=concentration giving 50% of maximum relaxation), of which the negative log. is the value pD2, and by the intrinsic activity corresponding to maximum effect.
These values were determined in parallel for the compound A and Salbutamol, on 6 preparations for each.

[2] = tested on: histamine bronchospasm; assay: Bronchodilator activity in vivo, anesthetized dog, intraduodenal (intratracheal pressure, histamine bronchospasm)
Procedure: 1.2.2. In the anesthesized dog (recording of the intratracheal pressure)
A bronchospasm was caused by intravenous injection and histamine. The bronchodilator activity was shown by partial or total inhibition of this spasm.
The products studied were administered intraduodenally and the histamine injected then at various times to follow the effect of the treatment.
The results borne in the table below are the averages of the values obtained in 3 animals for each product.

[3] = tested on: guinea pig trachea; assay: β-stimulant specificity: guinea pig trachea before and after propranolol; conditions: for EC50: Cavia porcellus, 6 preparations
Source text: respiratory (guinea pig trachea, in vitro)
cardiovascular (heart rate of the dog, in vivo) by the antagonistic effect of a β-blocking product.

[4] = tested on: histamine bronchospasm; assay: Bronchodilator activity in vivo, anesthetized guinea pig, intravenous (inhibition of histamine bronchospasm, KONZETT); conditions: for % inhibition in time: i.v.
Procedure: (§1) 1.2.1 In the anesthesized guinea pig (method of KONZETT. Arch. Exp. Pathol. Pharmakol. 1940 195 71-74)
(§2) A bronchospasm was caused by intravenous histamine injection. The bronchodilator activity was shown by partial or total inhibition of this spasm.
The product studied was administered intravenously or intraduodenaly and histamine injected then at different times to follow the delay in appearance and the duration of the inhibiting effect of the treatment. […]

[5] = tested on: heart rate and mean aortic pressure; assay: Heart rate and mean aortic pressure of the anesthetised dog, intraduodenal; format: in vivo; conditions: for Heart rate, maximum cumulative effect / Average aortic pressure, maximum cumulative effect: intraduodenal
Procedure: 3.1.1. Activity on the heart rate and on the mean aortic pressure of the anesthetisied dog
The activity of the compound A and of Salbutamol was studied on 2 batches of 3 dogs per product: one in spontaneous respiration, the other in artificial respiration; the two substances were administered intraduodenally at 3 doses: 0.008-0.025 and 0.08 mg/kg.

[6] = tested on: histamine bronchospasm; assay: Bronchodilator activity in vivo, anesthetized guinea pig, intraduodenal (inhibition of histamine bronchospasm, KONZETT)
Procedure: as §1, §2
The product studied was administered intravenously or intraduodenaly and histamine injected then at different times to follow the delay in appearance and the duration of the inhibiting effect of the treatment.
The results below are the averages of the values obtained in 10 animals.

[7] = tested on: rat uterus preparation; assay: Uterus relaxing activity in vitro; conditions: for EC50: Rattus norvegicus, 7 preparations, read-out: CE50 (effective concentration 50, inhibiting by 50% the control contraction)
Source text: This activity was investigated on a rat uterus preparation, put into estrus by cutaneous injection of oestradiol benzoate. The uterine horns were kept alive in a RINGER-LOCKE solution, modified by GADDUM and VOGT.
Their activity is expressed by the value of the molar CE50 (effective concentration 50, inhibiting by 50% the control contraction induced by the contracting agent).
Each CE50 indicated below was obtained from the results of 7 preparations.

[8] = tested on: isolated right atrium preparation of the guinea pig; assay: Activity on the heart rate in vitro, isolated right atrium; conditions: for Heart rate, maximum: basal 209 (Compound A), 202 (Salbutamol); for Tachycardiac activity in vitro (comparison with Salbutamol): sulphate, dihydrate
Procedure: This action was studied on an isolated right atrium preparation of the guinea pig kept alive in a RINGER solution. The effect of cumulative doses on the heart rate was recorded. The results below are the averages of 6 preparations of the compound A, of 4 for Salbutamol

## COc1cc(C(O)CNC(C)CCn2cnc3ccccc32)ccc1O (centres unmarked) [Compound A, 1-[1-benzimidazolyl]-N-[2-(4-hydroxy-3-methoxy-phenyl)2-hydroxy-ethyl]3-amino butane basic sulphate, dihydrate]
[1]; 6 preparations
  Maximum response (decontraction): 390 mg
[1]; Cavia porcellus, 6 preparations, Salbutamol 1.00, read-out: Intrinsic activity
  Emax: 109%
[1]; Cavia porcellus, 6 preparations, read-out: CD50 (decontracting concentration 50, concentration giving 50% of maximum relaxation)
  EC50: 0.071 µM
[1]; Cavia porcellus, negative log of molar CD50, 6 preparations, read-out: pD2 (converted)
  EC50: 0.0708 µM
[1]; in vitro, in words
  Activity on the tracheal muscle (comparison with Salbutamol): very close to that of Salbutamol
[2]; 0.025 mg base/kg, 5 min
  % inhibition in time: 48%
[2]; 0.025 mg base/kg, 20 min
  % inhibition in time: 60%
[2]; 0.025 mg base/kg, 35 min
  % inhibition in time: 67%
[2]; 0.025 mg base/kg, 60 min
  % inhibition in time: 63%
[2]; 0.025 mg base/kg, 90 min
  % inhibition in time: 62%
[2]; 0.08 mg base/kg, 5 min
  % inhibition in time: 70%
[2]; 0.08 mg base/kg, 20 min
  % inhibition in time: 78%
[2]; 0.08 mg base/kg, 35 min
  % inhibition in time: 76%
[2]; 0.08 mg base/kg, 60 min
  % inhibition in time: 70%
[2]; 0.08 mg base/kg, 90 min
  % inhibition in time: 60%
[2]; sulphate, dihydrate
  Bronchodilator activity (comparison, in words): acted more rapidly (inhibition already strong in 5 minutes); also recorded: activity was higher than or equal to that of Salbutamol, is characterised by its great speed of action
[3]; read-out: CD50 before propranolol
  EC50: 0.071 µM
[3]; propranolol 1.7×10^-8 mol, read-out: CD50 after propranolol
  EC50: 0.25 µM
[3]; after / before propranolol
  Ratio of CD50: 3.5
[4]; 0.08 μg base/kg, 1 min
  % inhibition in time: 1%
[4]; 0.08 μg base/kg, 5 min
  % inhibition in time: 1%
[4]; 0.08 μg base/kg, 10 min
  % inhibition in time: 0%
[4]; 0.08 μg base/kg, 15 min
  % inhibition in time: 0%
[4]; 0.25 μg base/kg, 1 min
  % inhibition in time: 9%
[4]; 0.25 μg base/kg, 5 min
  % inhibition in time: 1%
[4]; 0.25 μg base/kg, 10 min
  % inhibition in time: 0%
[4]; 0.25 μg base/kg, 15 min
  % inhibition in time: 0%
[4]; 0.8 μg base/kg, 1 min
  % inhibition in time: 36%
[4]; 0.8 μg base/kg, 5 min
  % inhibition in time: 3%
[4]; 0.8 μg base/kg, 10 min
  % inhibition in time: 2%
[4]; 0.8 μg base/kg, 15 min
  % inhibition in time: 3%
[4]; 2.5 μg base/kg, 1 min
  % inhibition in time: 66%
[4]; 2.5 μg base/kg, 5 min
  % inhibition in time: 13%
[4]; 2.5 μg base/kg, 10 min
  % inhibition in time: 8%
[4]; 2.5 μg base/kg, 15 min
  % inhibition in time: 8%
[4]; 8 μg base/kg, 1 min
  % inhibition in time: 73%
[4]; 8 μg base/kg, 5 min
  % inhibition in time: 17%
[4]; 8 μg base/kg, 10 min
  % inhibition in time: 12%
[4]; 8 μg base/kg, 15 min
  % inhibition in time: 8%
[4]; 25 μg base/kg, 1 min
  % inhibition in time: 92%
[4]; 25 μg base/kg, 5 min
  % inhibition in time: 52%
[4]; 25 μg base/kg, 10 min
  % inhibition in time: 38%
[4]; 25 μg base/kg, 15 min
  % inhibition in time: 28%
[4]; 84 μg base/kg, 1 min
  % inhibition in time: 92%
[4]; 84 μg base/kg, 5 min
  % inhibition in time: 80%
[4]; 84 μg base/kg, 10 min
  % inhibition in time: 70%
[4]; 84 μg base/kg, 15 min
  % inhibition in time: 63%
[4]; 84 μg base/kg, 30 min
  % inhibition in time: 51%
[4]; 84 μg base/kg, 45 min
  % inhibition in time: 36%
[4]; 84 μg base/kg, 60 min
  % inhibition in time: 21%
[4]; intravenous, in words
  Bronchodilator activity (comparison with Salbutamol): activity of the same order, although very slightly less for compound A at low doses; at the highest dose, the effect is intense and lasting, the compound A had an activity at least equal to that of Salbutamol
[5]; anesthetised dog, in words
  Tachycardiac and hypotensive effect (comparison with Salbutamol): a little less tachycardiac and hypotensive than Salbutamol
[5]; artificial respiration, 10 min after 0.08 mg/kg
  Heart rate, maximum cumulative effect: +20 cpm
[5]; artificial respiration, 75 min after 0.08 mg/kg
  Average aortic pressure, maximum cumulative effect: -26 mmHg
[5]; spontaneous respiration, 15 min after 0.08 mg/kg
  Heart rate, maximum cumulative effect: +17 cpm
[5]; spontaneous respiration, 20 min after 0.08 mg/kg
  Average aortic pressure, maximum cumulative effect: -15 mmHg
[6]; 0.25 mg base/kg, 1 min
  % inhibition in time: 11%
[6]; 0.25 mg base/kg, 5 min
  % inhibition in time: 27%
[6]; 0.25 mg base/kg, 15 min
  % inhibition in time: 26%
[6]; 0.25 mg base/kg, 30 min
  % inhibition in time: 26%
[6]; 0.25 mg base/kg, 45 min
  % inhibition in time: 19%
[6]; 0.25 mg base/kg, 60 min
  % inhibition in time: 13%
[6]; 0.25 mg base/kg, 90 min
  % inhibition in time: 9%
[6]; 0.8 mg base/kg, 1 min
  % inhibition in time: 16%
[6]; 0.8 mg base/kg, 5 min
  % inhibition in time: 60%
[6]; 0.8 mg base/kg, 15 min
  % inhibition in time: 61%
[6]; 0.8 mg base/kg, 30 min
  % inhibition in time: 44%
[6]; 0.8 mg base/kg, 45 min
  % inhibition in time: 29%
[6]; 0.8 mg base/kg, 60 min
  % inhibition in time: 23%
[6]; 0.8 mg base/kg, 90 min
  % inhibition in time: 21%
[6]; 2.5 mg base/kg, 1 min
  % inhibition in time: 20%
[6]; 2.5 mg base/kg, 5 min
  % inhibition in time: 73%
[6]; 2.5 mg base/kg, 15 min
  % inhibition in time: 65%
[6]; 2.5 mg base/kg, 30 min
  % inhibition in time: 53%
[6]; 2.5 mg base/kg, 45 min
  % inhibition in time: 44%
[6]; 2.5 mg base/kg, 60 min
  % inhibition in time: 39%
[6]; 2.5 mg base/kg, 90 min
  % inhibition in time: 34%
[6]; 2.5 mg base/kg, 120 min
  % inhibition in time: 30%
[6]; 8 mg base/kg, 1 min
  % inhibition in time: 51%
[6]; 8 mg base/kg, 5 min
  % inhibition in time: 82%
[6]; 8 mg base/kg, 15 min
  % inhibition in time: 82%
[6]; 8 mg base/kg, 30 min
  % inhibition in time: 71%
[6]; 8 mg base/kg, 45 min
  % inhibition in time: 67%
[6]; 8 mg base/kg, 60 min
  % inhibition in time: 65%
[6]; 8 mg base/kg, 90 min
  % inhibition in time: 59%
[6]; 8 mg base/kg, 120 min (n = 9 compound A, n = 8 Salbutamol)
  % inhibition in time: 55%
[6]; Cavia porcellus, read-out: Threshold active dose
  minimal effective dose: 0.25 mg/kg
[6]; sulphate, dihydrate
  Bronchodilator activity (comparison, in words): more lasting at 8 mg/kg; also recorded: more active than Salbutamol
[7]; contracting agent acetylcholine
  EC50: 0.00067 µM
[7]; contracting agent serotonine
  EC50: 0.0024 µM
[7]; in vitro, in words
  Activity on the uterus (comparison with Salbutamol): of the same order of that of Salbutamol
[8]; 1 × 10^-5 mol (maxi for Salbutamol)
  Heart rate, increase: +47 beats per min.
[8]; 1 × 10^-5 mol
  Heart rate, maximum: 256 beats per min.
[8]; 1 × 10^-6 mol (maxi for Compound A)
  Heart rate, increase: +49 beats per min.
[8]; 1 × 10^-6 mol
  Heart rate, maximum: 258 beats per min.
[8]; 1 × 10^-7 mol
  Heart rate, increase: +40 beats per min.
  Heart rate, maximum: 249 beats per min.
[8]; Cavia porcellus, same preparation, at the start of the test, read-out: Maximum as % of the maximum tachycardia obtained with isoprenaline
  Emax: < 50%
[8]; in vitro, in words
  CE50 and pD2 on heart rate (not calculable): this low activity prevents calculation of a CE50 and a pD2
[8]; in words, listed as Compound a
  Tachycardiac activity in vitro (comparison with Salbutamol): only a partial effect, very much less than that of Salbutamol
[8]; in words
  Tachycardiac activity in vitro (comparison with Salbutamol): increases the rate but the maximum effect is very much less than that of Salbutamol
